The source of these data is patent publication EP0577932A2, “Development of a mechanism-based screen to identify androgen receptor agonists and antagonists” (AMERICAN CYANAMID COMPANY, priority 1992, dated 1994).

The target in this assay is T1, mouse androgen receptor (Mus musculus, UniProt P19091).
T1 sequence (P19091 1-899): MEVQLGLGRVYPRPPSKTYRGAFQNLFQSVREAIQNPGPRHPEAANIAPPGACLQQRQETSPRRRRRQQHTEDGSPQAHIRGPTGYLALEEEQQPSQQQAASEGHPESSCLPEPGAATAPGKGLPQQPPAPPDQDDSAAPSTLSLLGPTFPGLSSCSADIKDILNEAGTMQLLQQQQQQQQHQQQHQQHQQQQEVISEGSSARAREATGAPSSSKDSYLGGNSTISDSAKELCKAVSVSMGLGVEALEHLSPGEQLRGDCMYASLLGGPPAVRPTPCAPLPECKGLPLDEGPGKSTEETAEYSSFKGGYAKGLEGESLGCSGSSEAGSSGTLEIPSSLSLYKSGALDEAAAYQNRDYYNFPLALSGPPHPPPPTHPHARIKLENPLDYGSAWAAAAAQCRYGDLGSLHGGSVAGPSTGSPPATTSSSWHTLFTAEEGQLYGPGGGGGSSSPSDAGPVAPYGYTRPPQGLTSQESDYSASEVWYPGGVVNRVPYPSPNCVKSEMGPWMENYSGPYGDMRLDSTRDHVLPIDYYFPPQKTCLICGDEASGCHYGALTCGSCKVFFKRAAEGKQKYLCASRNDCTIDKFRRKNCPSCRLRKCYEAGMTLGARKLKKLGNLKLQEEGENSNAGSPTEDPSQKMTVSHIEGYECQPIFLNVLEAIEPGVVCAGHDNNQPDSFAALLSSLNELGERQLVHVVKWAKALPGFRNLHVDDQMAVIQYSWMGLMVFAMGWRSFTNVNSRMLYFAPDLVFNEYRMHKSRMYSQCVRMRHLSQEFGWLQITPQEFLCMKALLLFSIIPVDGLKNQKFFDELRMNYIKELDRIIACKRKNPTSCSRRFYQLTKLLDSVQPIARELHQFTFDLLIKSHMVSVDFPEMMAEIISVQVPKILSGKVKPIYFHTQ
To be noted: compete for binding sites only at high concentrations.

Experimental: Bound and free steroids are separated by dextran-coated charcoal (0.5% Norit A and 0.05% dextran). Specific binding is determined by subtracting non-specific from total binding.

For the molecule `CC(C)(O)C(=O)Nc1ccc([N+](=O)[O-])c(C(F)(F)F)c1` [hyroxyl-flutamide], the “affinity for the androgen receptor (in words)” value was “lower affinity”.
